Structures can show the parent of a compound that is named as a salt. Where two headings read alike, the source gives them in different places.
Key:
human FLAP = human FLAP (Homo sapiens (Human), UniProt P20292); test: FLAP binding assay (HTRF format)
How it was run: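 Reported data take the mean of two different plates carrying duplicate samples and use the HTRF ratio as the measured signal.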

[1] = test system: leukotriene pathway in human whole blood (LTB4 levels); test: Human whole blood assay (A23187-stimulated LTB4); format: cell-based; settings: Homo sapiens, read-out: LTB4 IC50 1:1
How it was run: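 Compounds are pre-incubated 15 min at 37° Celsius in RPMI-diluted (1:1) heparinised whole blood before a 30 min A23187 stimulus (7 μg/mL). Plasma LTB4 is read by immunoassay kit, with IC50 calculated from a 4-parameter equation.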

[2] = human FLAP wild type, HTRF format, average of two plates, duplicates
[3] = read-out: FLAP Binding wild type HTRF Ki
[4] = human whole blood diluted 1:1 in RPMI, A23187-stimulated LTB4

Sequence of human FLAP (P20292 whole entry): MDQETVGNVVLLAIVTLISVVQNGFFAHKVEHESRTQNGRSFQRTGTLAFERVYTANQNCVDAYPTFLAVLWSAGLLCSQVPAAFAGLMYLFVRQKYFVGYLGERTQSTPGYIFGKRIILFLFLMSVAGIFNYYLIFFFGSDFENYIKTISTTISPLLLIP

Row | Ki (human FLAP; [2]) [µM] | IC50 [1, 4] [µM] | Compound | IC50 [1] [µM] | Ki (human FLAP; [3]) [µM]
1 | – | – | C[Si](C)(C)CCOCS(=O)(=O)c1ccccc1-c1ccc(-c2cnc(N)cn2)c(F)c1 [Example 245, 5-[3-Fluoro-2′-({[2-(trimethylsilyl)ethoxy]methyl}sulfonyl)biphenyl-4-yl]pyrazin-2-amine hydrochloride] | 0.233 | 0.045
2 | 0.199 | 0.302 | CS(=O)(=O)CCCS(=O)(=O)c1ccccc1-c1ccc(-c2cnc(N)cn2)c(F)c1 [Example 246, 5-(3-Fluoro-2′-{[3-(methylsulfonyl)propyl]sulfonyl}biphenyl-4-yl)pyrazin-2-amine hydrochloride] | – | –
3 | 0.089 | 0.197 | C[C@@H]1CNCCN1S(=O)(=O)c1ccccc1-c1ccc(-c2cnc(N)nc2)c(F)c1 [Example 247, 5-(3-Fluoro-2′-{[(2R)-2-methylpiperazin-1-yl]sulfonyl}biphenyl-4-yl)pyrimidin-2-amine] | – | –
4 | 0.05 | 0.124 | CC[C@@H](CO)NS(=O)(=O)c1ccccc1-c1ccc(-c2cnc(N)nc2)c(F)c1 [Example 248, 4′-(2-Aminopyrimidin-5-yl)-3′-fluoro-N-[(1S)-1-(hydroxymethyl)propyl]biphenyl-2-sulfonamide] | – | –
5 | 0.059 | 0.094 | N#CCCN(C1CC1)S(=O)(=O)c1ccccc1-c1ccc(-c2cnc(N)nc2)c(F)c1 [Example 249, 4′-(2-Aminopyrimidin-5-yl)-N-(2-cyanoethyl)-N-cyclopropyl-3′-fluorobiphenyl-2-sulfonamide] | – | –
6 | 0.038 | 0.077 | N#CCCNS(=O)(=O)c1ccccc1-c1ccc(-c2cnc(N)nc2)c(F)c1 [Example 250, 4′-(2-Aminopyrimidin-5-yl)-N-(2-cyanoethyl)-3′-fluorobiphenyl-2-sulfonamide] | – | –
7 | 0.005 | 0.068 | CC(C)(CO)CNS(=O)(=O)c1ccccc1-c1ccc(-c2cnc(N)nc2)c(F)c1 [Example 251, 4′-(2-Aminopyrimidin-5-yl)-3′-fluoro-N-(3-hydroxy-2,2-dimethylpropyl)biphenyl-2-sulfonamide] | – | –
8 | 0.134 | 0.191 | C[C@H]1CNCCN1S(=O)(=O)c1ccccc1-c1ccc(-c2cnc(N)nc2)c(F)c1 [Example 253, 5-(3-Fluoro-2′-{[(2S)-2-methylpiperazin-1-yl]sulfonyl}biphenyl-4-yl)pyrimidin-2-amine] | – | –
9 | 0.08 | 0.586 | Nc1ncc(-c2ccc(-c3ccccc3S(=O)(=O)C3CC3)cc2F)cn1 [Example 254, 5-[2′-(Cyclopropylsulfonyl)-3-fluorobiphenyl-4-yl]pyrimidin-2-amine] | – | –
10 | 0.035 | 0.073 | CN([C@H]1CCCNC1)S(=O)(=O)c1ccccc1-c1ccc(-c2cnc(N)nc2)c(F)c1 [Example 256, 4′-(2-Aminopyrimidin-5-yl)-3′-fluoro-N-methyl-N-[(3S)-piperidin-3-yl]biphenyl-2-sulfonamide] | – | –
11 | 0.154 | 1.12 | CN([C@@H]1CCCNC1)S(=O)(=O)c1ccccc1-c1ccc(-c2cnc(N)nc2)c(F)c1 [Example 257, 4′-(2-Aminopyrimidin-5-yl)-3′-fluoro-N-methyl-N-[(3R)-piperidin-3-yl]biphenyl-2-sulfonamide] | – | –
12 | 0.243 | 0.202 | Nc1ncc(-c2ccc(-c3ccccc3S(=O)(=O)N3CCNC[C@@H]3CO)cc2F)cn1 [Example 258, [(2R)-1-{[4′-(2-Aminopyrimidin-5-yl)-3′-fluorobiphenyl-2-yl]sulfonyl}piperazin-2-yl]methanol] | – | –
13 | 0.006 | 0.075 | CC(C)N(CCO)S(=O)(=O)c1ccccc1-c1ccc(-c2cnc(N)nc2)c(F)c1 [Example 261, 4′-(2-Aminopyrimidin-5-yl)-3′-fluoro-N-(2-hydroxyethyl)-N-(1-methylethyl)biphenyl-2-sulfonamide] | – | –
14 | 0.018 | 0.046 | Nc1ncc(-c2ccc(-c3ccccc3S(=O)(=O)N[C@H]3CC[C@H](O)CC3)cc2F)cn1 [Example 262, 4′-(2-Aminopyrimidin-5-yl)-3′-fluoro-N-(trans-4-hydroxycyclohexyl)biphenyl-2-sulfonamide] | – | –
15 | 0.169 | 0.207 | Nc1ncc(-c2ccc(-c3ccccc3S(=O)(=O)N[C@H]3CCNC3=O)cc2F)cn1 [Example 263, 4′-(2-Aminopyrimidin-5-yl)-3′-fluoro-N-[(3S)-2-oxopyrrolidin-3-yl]biphenyl-2-sulfonamide] | – | –
16 | 0.028 | 0.144 | Nc1ncc(-c2ccc(-c3ccccc3S(=O)(=O)N3CCS(=O)(=O)CC3)cc2F)cn1 [Example 264, 5-{2′-[(1,1-Dioxidothiomorpholin-4-yl)sulfonyl]-3-fluorobiphenyl-4-yl}pyrimidin-2-amine trifluoroacetic salt] | – | –
17 | 0.045 | 0.16 | Nc1ncc(-c2ccc(-c3ccccc3S(=O)(=O)N3CC(O)C3)cc2F)cn1 [Example 265, 1-{[4′-(2-Aminopyrimidin-5-yl)-3′-fluorobiphenyl-2-yl]sulfonyl}azetidin-3-ol trifluoroacetic acid salt] | – | –
18 | 0.051 | 0.606 | CC(C)[C@@H](CO)NS(=O)(=O)c1ccccc1-c1ccc(-c2cnc(N)nc2)c(F)c1 [Example 271, 4′-(2-Aminopyrimidin-5-yl)-3′-fluoro-N-[(1S)-1-(hydroxymethyl)-2-methylpropyl]biphenyl-2-sulfonamide trifluoroacetic acid salt] | – | –
19 | 0.009 | 0.105 | CC(C)[C@H](CO)NS(=O)(=O)c1ccccc1-c1ccc(-c2cnc(N)nc2)c(F)c1 [Example 273, 4′-(2-Aminopyrimidin-5-yl)-3′-fluoro-N-[(1R)-1-(hydroxymethyl)-2-methylpropyl]biphenyl-2-sulfonamide trifluoroacetic acid salt] | – | –
20 | 0.023 | 0.325 | Nc1ncc(-c2ccc(-c3ccccc3S(=O)(=O)N3CCC[C@@H]3CO)cc2F)cn1 [Example 276, [(2R)-1-{[4′-(2-Aminopyrimidin-5-yl)-3′-fluorobiphenyl-2-yl]sulfonyl}pyrrolidin-2-yl]methanol trifluoroacetic acid salt] | – | –
21 | 0.052 | > 1 | Nc1ncc(-c2ccc(-c3ccccc3S(=O)(=O)N3CCC[C@H]3CO)cc2F)cn1 [Example 277, [(2S)-1-{[4′-(2-Aminopyrimidin-5-yl)-3′-fluorobiphenyl-2-yl]sulfonyl}pyrrolidin-2-yl]methanol trifluoroacetic acid salt] | – | –
22 | 0.036 | 0.095 | C[C@@H](O)CNS(=O)(=O)c1ccccc1-c1ccc(-c2cnc(N)nc2)c(F)c1 [Example 278, 4′-(2-Aminopyrimidin-5-yl)-3′-fluoro-N-[(2R)-2-hydroxypropyl]biphenyl-2-sulfonamide-trifluoroacetic acid salt] | – | –
23 | 0.07 | 0.149 | C[C@H](O)CNS(=O)(=O)c1ccccc1-c1ccc(-c2cnc(N)nc2)c(F)c1 [Example 279, 4′-(2-Aminopyrimidin-5-yl)-3′-fluoro-N-[(2S)-2-hydroxypropyl]biphenyl-2-sulfonamide trifluoroacetic acid salt] | – | –

Row | Compound | Ki (human FLAP; [2]) [µM] | IC50 [1, 4] [µM] | IC50 [1] [µM] | Ki (human FLAP; [3]) [µM]
24 | C[Si](C)(C)CCOCSc1ccccc1-c1ccc(-c2cnc(N)cn2)c(F)c1 [Example 244, 5-[3-Fluoro-2′-({[2-(trimethylsilyl)ethoxy]methyl}sulfanyl)biphenyl-4-yl]pyrazin-2-amine] | 0.029 | – | 0.211 | –
25 | Nc1ncc(-c2ccc(-c3ccccc3S(=O)(=O)N[C@@H]3CCCNC3=O)cc2F)cn1 [Example 266, 4′-(2-Aminopyrimidin-5-yl)-3′-fluoro-N-[(3R)-2-oxopiperidin-3-yl]biphenyl-2-sulfonamide trifluoroacetic acid salt] | – | 0.464 | – | 0.184
26 | Nc1ncc(-c2ccc(-c3ccccc3S(=O)(=O)N[C@H]3CCCNC3=O)cc2F)cn1 [Example 267, 4′-(2-Aminopyrimidin-5-yl)-3′-fluoro-N-[(3S)-2-oxopiperidin-3-yl]biphenyl-2-sulfonamide trifluoroacetic acid salt] | – | 0.35 | – | 0.154
27 | C[C@@H](NS(=O)(=O)c1ccccc1-c1ccc(-c2cnc(N)nc2)c(F)c1)C(F)(F)F [Example 268, 4′-(2-Aminopyrimidin-5-yl)-3′-fluoro-N-[(1R)-2,2,2-trifluoro-1-methylethyl]biphenyl-2-sulfonamide trifluoroacetic acid salt] | – | 0.056 | – | 0.011
28 | CC(C)(C)[C@H](CO)NS(=O)(=O)c1ccccc1-c1ccc(-c2cnc(N)nc2)c(F)c1 [Example 269, 4′-(2-Aminopyrimidin-5-yl)-3′-fluoro-N-[(1R)-1-(hydroxymethyl)-2,2-dimethylpropyl]biphenyl-2-sulfonamide trifluoroacetic acid salt] | – | 0.087 | – | 0.015
29 | CC(C)(C)[C@@H](CO)NS(=O)(=O)c1ccccc1-c1ccc(-c2cnc(N)nc2)c(F)c1 [Example 270, 4′-(2-Aminopyrimidin-5-yl)-3′-fluoro-N-[(1S)-1-(hydroxymethyl)-2,2-dimethylpropyl]biphenyl-2-sulfonamide trifluoroacetic acid salt] | – | 1.06 | – | 0.057
30 | CC(C)(O)CNS(=O)(=O)c1ccccc1-c1ccc(-c2cnc(N)nc2)c(F)c1 [Example 272, 4′-(2-Aminopyrimidin-5-yl)-3′-fluoro-N-(2-hydroxy-2-methylpropyl)biphenyl-2-sulfonamide trifluoroacetic acid salt] | – | 0.125 | – | 0.032
31 | Nc1ncc(-c2ccc(-c3ccccc3S(=O)(=O)NCCO)cc2F)cn1 [Example 275, 4′-(2-Aminopyrimidin-5-yl)-3′-fluoro-N-(2-hydroxyethyl)biphenyl-2-sulfonamide trifluoroacetic acid salt] | – | 0.192 | – | 0.065

Reference: patent US9079866B2, “Flap modulators” (JANSSEN PHARMACEUTICA NV, priority 2013, dated 2015)
